Source: ChEMBL document CHEMBL1150678, “Bioactive sterols from the starfish Certonardoa semiregularis” (2003)
≈ marks a conversion by molar mass, not a printed value.

Assays:
Streptococcus pyogenes [1] = experiment: Antimicrobial activity against Streptococcus pyogenes 77A isolate after 18 hrs; assay type: functional
SK-MEL-2 = experiment: Cytotoxicity against human SK-MEL-2 cells; assay type: functional; settings: read-out: ED50 (the source's name)
Enterobacter cloacae [2] = experiment: Antimicrobial activity against Enterobacter cloacae P99 after 18 hrs; assay type: functional
Pseudomonas aeruginosa [3] = experiment: Antimicrobial activity against Pseudomonas aeruginosa 9027 isolate after 18 hrs; assay type: functional
Pseudomonas aeruginosa [4] = experiment: Antimicrobial activity against Pseudomonas aeruginosa 1771 isolate after 18 hrs; assay type: functional
Staphylococcus aureus [5] = experiment: Antimicrobial activity against Staphylococcus aureus 503 isolate after 18 hrs; assay type: functional
XF498 = experiment: Cytotoxicity against human XF498 cells; assay type: functional; settings: read-out: ED50 (the source's name)
Staphylococcus aureus [6] = experiment: Antimicrobial activity against Staphylococcus aureus 285 isolate after 18 hrs; assay type: functional
Escherichia coli [7] = experiment: Antimicrobial activity against Escherichia coli 078 isolate after 18 hrs; assay type: functional
A549 = experiment: Cytotoxicity against human A549 cells; assay type: functional; settings: read-out: ED50 (the source's name)
Enterobacter cloacae [8] = experiment: Antimicrobial activity against Enterobacter cloacae 1321E after 18 hrs; assay type: functional
Salmonella typhimurium = experiment: Antimicrobial activity against Salmonella Typhimurium after 18 hrs; assay type: functional, Salmonella enterica subsp. enterica serovar Typhimurium; settings: Salmonella enterica
HCT-15 = experiment: Cytotoxicity against human HCT15 cells; assay type: functional; settings: read-out: ED50 (the source's name)
Staphylococcus aureus [9] = experiment: Antimicrobial activity against Staphylococcus aureus SG511 isolate after 18 hrs; assay type: functional
Escherichia coli [10] = experiment: Antimicrobial activity against Escherichia coli DC2 isolate after 18 hrs; assay type: functional
Klebsiella aerogenes = experiment: Antimicrobial activity against Klebsiella aerogenes 1522E after 18 hrs; assay type: functional
Escherichia coli [11] = experiment: Antimicrobial activity against Escherichia coli 1507E isolate after 18 hrs; assay type: functional
Escherichia coli [12] = experiment: Antimicrobial activity against Escherichia coli DC0 isolate after 18 hrs; assay type: functional
Pseudomonas aeruginosa [13] = experiment: Antimicrobial activity against Pseudomonas aeruginosa 1592E isolate after 18 hrs; assay type: functional
Klebsiella oxytoca = experiment: Antimicrobial activity against Klebsiella oxytoca 1082E after 18 hrs; assay type: functional
Streptococcus pyogenes [14] = experiment: Antimicrobial activity against Streptococcus pyogenes 308A isolate after 18 hrs; assay type: functional
Enterococcus faecium = experiment: Antimicrobial activity against Streptococcus faecium MD8b isolate after 18 hrs; assay type: functional
Pseudomonas aeruginosa [15] = experiment: Antimicrobial activity against Pseudomonas aeruginosa 1771M isolate after 18 hrs; assay type: functional
SK-OV-3 = experiment: Cytotoxicity against human SKOV3 cells; assay type: functional; settings: read-out: ED50 (the source's name)
Escherichia coli [16] = experiment: Antimicrobial activity against Escherichia coli TEM isolate after 18 hrs; assay type: functional

Row | MIC (Streptococcus pyogenes [1]) [µg/mL] | MIC (Enterobacter cloacae [2]) [µg/mL] | MIC (Pseudomonas aeruginosa [3]) [µg/mL] | MIC (Pseudomonas aeruginosa [4]) [µg/mL] | MIC (Staphylococcus aureus [5]) [µg/mL] | MIC (Staphylococcus aureus [6]) [µg/mL] | MIC (Escherichia coli [7]) [µg/mL] | MIC (Enterobacter cloacae [8]) [µg/mL] | MIC (Salmonella typhimurium) [µg/mL] | MIC (Staphylococcus aureus [9]) [µg/mL] | MIC (Escherichia coli [10]) [µg/mL] | MIC (Klebsiella aerogenes) [µg/mL] | MIC (Pseudomonas aeruginosa [13]) [µg/mL] | MIC (Streptococcus pyogenes [14]) [µg/mL] | MIC (Pseudomonas aeruginosa [15]) [µg/mL] | Structure (SMILES) | EC50 (SK-MEL-2) [µg/mL] | EC50 (XF498) [µg/mL] | EC50 (A549) [µg/mL] | EC50 (HCT-15) [µg/mL] | EC50 (SK-OV-3) [µg/mL] | further results
1 | > 25 | > 25 | > 25 | 25 (≈ 55.2 µM) | > 25 | > 25 | > 25 | > 25 | > 25 | > 25 | > 25 | > 25 | > 25 | 12.5 (≈ 27.6 µM) | 25 (≈ 55.2 µM) | CC(C)[C@@H](O)CC[C@@H](C)[C@H]1C[C@@H](O)[C@@H]2[C@]1(C)CC[C@@H]1[C@@]3(C)CC[C@H](O)C[C@@H]3[C@@H](O)C[C@]12O | 12.4 (≈ 27.4 µM) | 11.4 (≈ 25.2 µM) | 11.3 (≈ 25 µM) | 19.4 (≈ 42.9 µM) | 15.6 (≈ 34.5 µM) | MIC (Escherichia coli [11]): > 25 µg/mL; MIC (Escherichia coli [12]): > 25 µg/mL; MIC (Klebsiella oxytoca): > 25 µg/mL; MIC (Enterococcus faecium): > 25 µg/mL; MIC (Escherichia coli [16]): > 25 µg/mL
2 | > 25 | > 25 | > 25 | 25 (≈ 52 µM) | > 25 | > 25 | > 25 | > 25 | > 25 | > 25 | > 25 | > 25 | > 25 | 25 (≈ 52 µM) | 25 (≈ 52 µM) | C=C(CC[C@@H](C)[C@H]1C[C@@H](O)[C@@H]2[C@]1(C)CC[C@@H]1[C@@]3(C)CC[C@H](O)[C@H](O)[C@@H]3[C@@H](O)C[C@]12O)[C@H](C)CO [CERTONARDOSTEROL A] | 4.1 (≈ 8.53 µM) | 4.4 (≈ 9.15 µM) | 3.1 (≈ 6.45 µM) | 4.5 (≈ 9.36 µM) | 7.3 (≈ 15.2 µM) | MIC (Escherichia coli [11]): > 25 µg/mL; MIC (Escherichia coli [12]): > 25 µg/mL; MIC (Klebsiella oxytoca): > 25 µg/mL; MIC (Enterococcus faecium): > 25 µg/mL; MIC (Escherichia coli [16]): > 25 µg/mL
3 | > 25 | > 25 | > 25 | 25 (≈ 53.8 µM) | > 25 | > 25 | > 25 | > 25 | > 25 | > 25 | > 25 | > 25 | > 25 | 25 (≈ 53.8 µM) | 25 (≈ 53.8 µM) | C=C(CC[C@@H](C)[C@H]1C[C@@H](O)[C@@H]2[C@]1(C)CC[C@@H]1[C@@]3(C)CC[C@H](O)C[C@@H]3[C@@H](O)C[C@]12O)[C@H](C)CO [CERTONARDOSTEROL C] | 15.1 (≈ 32.5 µM) | 13.3 (≈ 28.6 µM) | 14.1 (≈ 30.3 µM) | 23.9 (≈ 51.4 µM) | 20.2 (≈ 43.5 µM) | MIC (Escherichia coli [11]): > 25 µg/mL; MIC (Escherichia coli [12]): > 25 µg/mL; MIC (Klebsiella oxytoca): > 25 µg/mL; MIC (Enterococcus faecium): > 25 µg/mL; MIC (Escherichia coli [16]): > 25 µg/mL

The remaining lines, values behind:

Row | Structure (SMILES) | MIC (Streptococcus pyogenes [1]) [µg/mL] | MIC (Enterobacter cloacae [2]) [µg/mL] | MIC (Pseudomonas aeruginosa [3]) [µg/mL] | MIC (Pseudomonas aeruginosa [4]) [µg/mL] | MIC (Staphylococcus aureus [5]) [µg/mL] | MIC (Staphylococcus aureus [6]) [µg/mL] | MIC (Escherichia coli [7]) [µg/mL] | MIC (Enterobacter cloacae [8]) [µg/mL] | MIC (Salmonella typhimurium) [µg/mL] | MIC (Staphylococcus aureus [9]) [µg/mL] | MIC (Escherichia coli [10]) [µg/mL] | MIC (Klebsiella aerogenes) [µg/mL] | MIC (Pseudomonas aeruginosa [13]) [µg/mL] | MIC (Streptococcus pyogenes [14]) [µg/mL] | MIC (Pseudomonas aeruginosa [15]) [µg/mL] | EC50 (SK-MEL-2) [µg/mL] | EC50 (XF498) [µg/mL] | EC50 (A549) [µg/mL] | EC50 (HCT-15) [µg/mL] | EC50 (SK-OV-3) [µg/mL] | further results
4 | C=C(CC[C@@H](C)[C@H]1C[C@@H](O)[C@H]2[C@@H]3C[C@H](O)[C@H]4[C@@H](O)[C@@H](O)CC[C@]4(C)[C@H]3CC[C@@]21C)[C@H](C)CO [CERTONARDOSTEROL B] | > 25 | > 25 | > 25 | 25 (≈ 53.8 µM) | > 25 | > 25 | > 25 | > 25 | > 25 | > 25 | > 25 | > 25 | > 25 | 25 (≈ 53.8 µM) | 25 (≈ 53.8 µM) | 4.9 (≈ 10.5 µM) | 4.7 (≈ 10.1 µM) | 3.6 (≈ 7.75 µM) | 6.4 (≈ 13.8 µM) | 6.9 (≈ 14.8 µM) | MIC (Escherichia coli [11]): > 25 µg/mL; MIC (Escherichia coli [12]): > 25 µg/mL; MIC (Klebsiella oxytoca): > 25 µg/mL; MIC (Enterococcus faecium): > 25 µg/mL; MIC (Escherichia coli [16]): > 25 µg/mL
5 | C=C(CC[C@@H](C)[C@H]1C[C@@H](O)[C@H]2[C@@H]3C[C@H](O)[C@H]4C[C@@H](O)CC[C@]4(C)[C@H]3CC[C@@]21C)[C@H](C)CO [CERTONARDOSTEROL D] | > 25 | > 25 | > 25 | 25 (≈ 55.7 µM) | > 25 | > 25 | > 25 | > 25 | > 25 | > 25 | > 25 | > 25 | > 25 | 25 (≈ 55.7 µM) | 25 (≈ 55.7 µM) | 5.5 (≈ 12.3 µM) | 4.8 (≈ 10.7 µM) | 5.3 (≈ 11.8 µM) | 9.6 (≈ 21.4 µM) | 8.5 (≈ 18.9 µM) | MIC (Escherichia coli [11]): > 25 µg/mL; MIC (Escherichia coli [12]): > 25 µg/mL; MIC (Klebsiella oxytoca): > 25 µg/mL; MIC (Enterococcus faecium): > 25 µg/mL; MIC (Escherichia coli [16]): > 25 µg/mL
6 | CC(/C=C/[C@@H](C)[C@H]1C[C@@H](O)[C@H]2[C@@H]3C[C@H](O)[C@H]4C(O)[C@@H](O)CC[C@]4(C)[C@H]3CC[C@@]21C)CCO (stereo not given in full) [CERTONARDOSTEROL L] |  |  |  |  |  |  |  |  |  |  |  |  |  |  |  | 4.3 (≈ 9.54 µM) | 4.5 (≈ 9.99 µM) | 4.3 (≈ 9.54 µM) | 4.2 (≈ 9.32 µM) | 6 (≈ 13.3 µM) | 
7 | C[C@H](CO)[C@H](C)CC[C@@H](C)[C@H]1C[C@@H](O)[C@@H]2[C@]1(C)CC[C@@H]1[C@@]3(C)CC[C@H](O)[C@H](O)[C@@H]3[C@@H](O)C[C@]12O [CERTONARDOSTEROL M] |  |  |  |  |  |  |  |  |  |  |  |  |  |  |  | > 30 | > 30 | 30 (≈ 62.2 µM) | > 30 | > 30 | 
8 | COc1cccc2c1C(=O)c1c(O)c3c(c(O)c1C2=O)C[C@@](O)(C(=O)CO)C[C@@H]3O[C@H]1C[C@H](N)[C@H](O)[C@H](C)O1 [DOXORUBICIN] |  |  |  |  |  |  |  |  |  |  |  |  |  |  |  | 0.02 (≈ 0.0368 µM) | 0.06 (≈ 0.11 µM) | 0.02 (≈ 0.0368 µM) | 0.03 (≈ 0.0552 µM) | 0.17 (≈ 0.313 µM) | 
9 | C[C@@H](O)[C@H]1C(=O)N2C(C(=O)O)=C(S[C@@H]3CN[C@H](C(=O)N(C)C)C3)[C@H](C)[C@H]12 [MEROPENEM] | 0.004 (≈ 0.0104 µM) |  |  | 0.39 (≈ 1.02 µM) |  |  |  |  |  |  |  |  | 0.2 (≈ 0.522 µM) | 0.01 (≈ 0.0261 µM) | 0.1 (≈ 0.261 µM) |  |  |  |  |  | 
